Reference: article PMC12019328, “Discovery of an ApoE4-targeted small-molecule SirT1 enhancer for the treatment of Alzheimer’s disease” (Scientific Reports, 2025)

What was measured:
SirT1 promoter = assay: ChIP analysis of SirT1 promoter occupancy in Kelly cells; format: cell-based, human; conditions: vs DMSO
Protocol: Correlations between gene mRNAs in DDL-214, -218, and -219-treated Kelly cells
As described in the main manuscript, human Kelly neuroblastoma cells were treated with
racemate DDL-214, and enantiomers DDL-218 and -219. Levels of PRMT5, NFYb, SirT1, and
PPP2r5e mRNAs were then determined. The correlations between these gene mRNAs for all
Data points are graphed by
treatment in Figure S6D-F and their significant correlation (Pearson correlation 0.914) in
bioinformatic analysis of gene co-expression of 2300 human brain RNAseq samples performed
at Genefriends.org (Raina, et al. (2022) GeneFriends: gene co-expression databases and tools
for humans and model organisms, Nucleic Acids Research, 2022;
Figure S6. Correlation of gene mRNA levels in DDL-treated Kelly cells. All data points are shown for (A)
PRMT5 vs. NFYb, (B) SirT1 vs. PRMT5, and (C) PPP2r5E vs. SirT1. R2 values are shown on the upper
right of each panel. (D-F) The same data with treatment (DDL-214, -218, or -219) indicated by symbols
shown below panel (E). The statistical 'r' value and significance determined by Pearsons Correlation
ChIP assay for SirT1 gene promoter occupancy by ApoE4 and RNA polymerase […]
promoter by ApoE4 or RNA Polymerase (RNAP) was determined using an EZ-ChIP kit (Millipore […]
DNA was purified. The immunoprecipitated DNA was measured for the level of immuno-captured […]

[1] = Brain tissue binding (dialysis of brain homogenate); format: in vitro ADME; conditions: pH 7.4, brain homogenate 20 mg/mL, 2 µM compound, 37 °C, read-out: Brain Tissue Binding [fu,bound (%)]
Protocol: Figure S3B. SirT1 protein levels in N2a-E4 cells after A03 and DDL-214 treatment. Compound treatment was done at 5 and 50 µM. SirT1 levels were measured by AlphaLISA followed and normalized to protein […]
DDL-218 Physiochemical Properties
Brain Tissue Binding [fu,bound (%)]
Brain tissue was homogenized in PBS (pH 7.4) (1: 3 weight(mg)/volume(µL)) and the protein concentration of was determined using the Micro BCA™ Protein Assay Kit (Thermo Fisher Scientific, Cat#23235). Brain homogenate was diluted to 20 mg/mL in PBS (pH 7.4) and added to Slide-A-Lyzer™ MINI Dialysis Devices, 10K MWCO dialysis cups (Thermo Fisher Scientific, Cat#PI88401) in 48-well plate containing PBS (500 µL; pH 7.4). 1 µL of […] compound was added to the brain homogenate (Final Concentration: 2 µM compound, 0.5% DMSO) and incubated on a rocker for 4.5 hours at 37 °C. 50 µL of brain homogenate (within the dialysis cup) and PBS (within the 48-well plate) were transferred to new microcentrifuge tubes containing 200 µL of quenching reagent (100% Acetonitrile) containing internal standard. […]
The % of the unbound drug (fu,bound) was calculated using the following equation: fu,bound = [normalized peak area in buffer side / normalized peak area in brain side] x 100 Liver Microsome Stability [t1/2 (min)] […]

## CC(N)C(=O)OC(C)(C)Cc1ccncc1 (stereo not drawn) [DDL-218]
SirT1 promoter
  ApoE4 binding to SirT1 promoter: lower, but the effect was not significant
  RNAP occupancy of SirT1 promoter: increased
[1]
  fraction unbound at 4.5 h, 2 µM: 0.43
